Target: T1, SLC26A2 (Homo sapiens, UniProt P50443)
T1 construct: full length, N-terminal His-tag and thrombin site (tag digested with thrombin for cryo-EM); Expi293F, BacMam; LMNG; homodimer; model covers residues 52-724
T1 sequence (P50443 1-739): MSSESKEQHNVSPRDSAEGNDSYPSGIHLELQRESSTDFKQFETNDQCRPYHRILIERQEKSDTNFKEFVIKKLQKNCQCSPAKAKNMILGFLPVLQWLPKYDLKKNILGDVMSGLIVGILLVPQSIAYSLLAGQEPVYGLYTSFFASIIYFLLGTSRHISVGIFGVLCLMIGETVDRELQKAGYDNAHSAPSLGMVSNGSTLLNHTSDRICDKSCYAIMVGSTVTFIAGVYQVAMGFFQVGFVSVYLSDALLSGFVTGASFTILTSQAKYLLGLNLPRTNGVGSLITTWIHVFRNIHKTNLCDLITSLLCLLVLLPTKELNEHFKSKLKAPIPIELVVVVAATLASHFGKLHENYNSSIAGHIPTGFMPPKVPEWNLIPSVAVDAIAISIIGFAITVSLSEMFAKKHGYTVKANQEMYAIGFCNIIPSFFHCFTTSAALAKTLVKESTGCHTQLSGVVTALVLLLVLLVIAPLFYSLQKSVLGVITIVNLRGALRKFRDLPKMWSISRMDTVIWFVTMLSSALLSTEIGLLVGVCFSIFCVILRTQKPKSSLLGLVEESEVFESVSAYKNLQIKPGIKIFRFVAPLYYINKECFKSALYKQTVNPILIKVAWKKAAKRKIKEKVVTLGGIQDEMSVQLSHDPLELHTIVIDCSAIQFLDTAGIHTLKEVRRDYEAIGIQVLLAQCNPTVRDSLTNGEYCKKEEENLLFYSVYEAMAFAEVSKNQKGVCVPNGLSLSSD
Experiment: cryo-EM structure of the complex
Format: binding
Conditions: pH 7.5, LMNG

Structure (SMILES) | cryo-EM structure of the complex (50 mM K2C2O4, no NaCl, weak density outside the canonical pocket, between TM5 and TM12) | cryo-EM structure of the complex (150 mM NaCl, canonical TM3/TM10 pocket, inward-facing)
O=C(O)C(=O)O [C2O4^2−] | weak densities outside the pocket | –
Cl [Cl^−] | – | we identified a distinct density corresponding to the Cl^- ion in this cleft

Reference: publication PMC11059360 (Nature Communications, 2024)
